Our source for the emission maximum values is the Deep4Chem optical property database.

The nature of the series: solvent given as SMILES.

Values joined by “and” are separate entries in the source; they are usually repeats but may differ in a detail not shown here. Identical values can stand only once.

For the molecule `Cc1cc(=O)oc2cc3c4ccc(C(C)(C)C)cc4c4cc(C(C)(C)C)ccc4c3cc12`, the emission maximum (in ClC(Cl)Cl) was found to be 423 nm.
As for `CN(C)c1ccc(C#Cc2ncnc3ccccc23)cc1`, the emission maximum by setting is: (in C1CCCCC1) 444 nm; (in C1CCOC1) 540 nm; (in CC#N) 573 nm; (in CS(C)=O) 583 nm; (in ClCCl) 560 nm.
Where the note is “in ClCCl”, `CCCCn1c2ccccc2c2ccc(C#Cc3ccc4ccc5cccc6ccc3c4c56)cc21` yielded an emission maximum of 411 nm.
With `CCCCCCCCCCCCCCCCCCN1C(=O)c2ccc3c4ccc5c6c(ccc(c7ccc(c2c37)C1=O)c64)C(=O)N(CCCCCCCCCCCCCCCCCC)C5=O`, the emission maximum (in CN(C)C=O) was 535 nm.
`C[n+]1c2c(c(-c3ccccc3)c3c1CCCC3)CCCC2` came in with an emission maximum (in CCO) of 420 nm.
Turning to `CCCCCCC(CCCCCC)N1C(=O)c2cccc3c(-c4cc(OC)c(OC)c(OC)c4)ccc(c23)C1=O`, the emission maximum reads like this: (in CCCCCC) 440.2 nm; (in CCCCCCCCCCCCCC) 442.3 nm; (in CCCCCCCCCCCO) 526.4 nm; (in CCCCO) 572 nm; (in CN(C)C=O) 618.8 nm; (in Cc1ccccc1) 492.4 nm. This molecule showed an emission maximum (in ClC(Cl)Cl) of 525.1 nm.
Take `O=C1OC(=O)C2=C1S[C@]13C2=C[C@H](c2ccccc21)c1ccccc13`: the emission maximum (in ClCCl) is listed as 514 nm.
Regarding `Oc1ccc(C2=N[N+]3=Cc4c(ccc5ccccc45)O[B-]3(c3ccc([B-]45OC(c6ccc(O)cc6)=N[N+]4=Cc4c(ccc6ccccc46)O5)cc3)O2)cc1` (stereo not drawn), where the note is “in C1CCOC1”, the emission maximum was 477 nm.
Turning to `O=c1c2cccc3cccc(c32)c2nc3ccccc3n12`, the emission maximum (in ClCCl) is given as 499 nm.
On to `COc1cc(/C=C/c2nc3ccccc3o2)c(OC)cc1/C=C/c1nc(C)nc(/C=C/c2cc(OC)c(/C=C/c3nc4ccccc4o3)cc2OC)n1`, for which the emission maximum runs as follows: (in C1CCOC1) 487 nm; (in CC#N) 502 nm; (in ClC(Cl)Cl) 494 nm; (in ClCCl) 496 nm.
Regarding `Cc1ccc2cc(C)ccc2c1`, the emission maximum (in C1CCCCC1) is on record as 342.82 nm.
Turning to `COc1cc2c(c(OC)c1OC)c1ccc3cccc4c5cccc6oc(=O)c2c(c65)c1c34`, the emission maximum (in C1CCOC1) is recorded as 492 nm.
`COc1ccc(-c2cc(-c3ccc(OC)cc3)c3c(N)nc(N4CCCC4)c(C#N)c3n2)cc1`: the emission maximum is 516 nm (in CC#N); 513 nm (in CC(C)=O); 507 nm (in CC(C)O); 515 nm (in CO); 500 nm (in ClC(Cl)Cl); 506 nm (in ClCCl). Under “in c1ccccc1”, the emission maximum was 502 nm.
Molecule `Cc1ccc2[nH]c(-c3ccc(-c4ccc(-c5ccc(-c6nc7cc(C)ccc7[nH]6)cc5)c(C)c4)cc3)nc2c1` showed an emission maximum (in CN(C)C=O) of 408 nm.
Molecule `C(=C\c1ccc(/C=C/c2ccc(N(c3ccccc3)c3ccccc3)cc2)cc1)/c1ccc(/C=C/c2ccc(N(c3ccccc3)c3ccccc3)cc2)cc1` gave an emission maximum (in ClCCl) of 510 nm.
Same read-out and setting: next, `CCCCN(CCCC)c1ccc(C#Cc2cc(C#Cc3ccc([N+](=O)[O-])cc3)c(C#Cc3ccc([N+](=O)[O-])cc3)cc2C#Cc2ccc(N(CCCC)CCCC)cc2)cc1`: 563 nm.
With `COc1ccc(C(=O)COc2c(C)c(=O)n3c(=O)c(C)c(COC(=O)c4ccccc4Cl)n23)cc1`, the emission maximum (in CCO) is 460 nm.
Consider `CC1=[N+]2C(=C(c3ccc(N4CCCCC4)cc3)c3ccc(C)n3[B-]2(F)F)C=C1`, for which the emission maximum runs as follows: (in C1CCCCC1) 519 nm; (in C1CCOC1) 527 nm and 514 nm; (in CC#N) 519 nm; (in CC(=O)C(C)(C)C) 523 nm; (in CC(C)=O) 517 nm; (in CCCCCC) 520 nm. Besides, the emission maximum by setting is: (in CCOC(C)=O) 518 nm; (in CO) 518 nm; (in Cc1ccccc1) 593 nm; (in ClC(Cl)Cl) 527 nm.
As to `C1=CC2=Nc3cccc[n+]3CN2C=C1`, for the setting “in CO”, the emission maximum is 448 nm.
Molecule `Cc1cc(N2c3ccccc3C3(c4ccccc4-c4ccccc43)c3ccccc32)c(C)cc1-c1nc(-c2ccccc2)nc(-c2ccccc2)n1` came in with an emission maximum (in Cc1ccccc1) of 486 nm.
As for `O=C1CC(=O)Nc2cc(Cl)ccc2N1`, the emission maximum (in CS(C)=O) amounted to 336 nm.
As to `CN(C)c1ccc(-c2cc3c(s2)c(C(=O)c2ccccc2)cc(=O)n3Cc2ccccc2)cc1`, the emission maximum by setting is: (in CC#N) 521 nm; (in ClCCl) 678 nm.
As for `O=P1(c2ccccc2)C(c2ccc(C3=Cc4ccccc4P3(=O)c3ccccc3)cc2)=Cc2ccccc21` (stereo not drawn), the emission maximum (in C1CCOC1) is 431 nm.
The molecule `N#Cc1cc(N2c3ccccc3Sc3ccccc32)c(N2c3ccccc3Sc3ccccc32)cc1C#N` had an emission maximum (in c1ccc2c(c1)c1ccccc1n2-c1ccc(-c2ccc(-n3c4ccccc4c4ccccc43)cc2)cc1) of 605 nm.
As for `c1ccc2cc3ccccc3cc2c1`, the emission maximum reads like this: (in C1CCCCC1) 400 nm and 407.66 nm; (in C1CCOC1) 397 nm; (in CO) 400 nm.
Take `CCCCCCc1ccc2c3c(ccc2c1)O[B-](F)(F)[N+](c1ccc([N+]2=Cc4c(ccc5cc(CCCCCC)ccc45)O[B-]2(F)F)cc1)=C3`: the emission maximum is, setting by setting: (in C1CCOC1) 505 nm; (in CC#N) 502 nm; (in Cc1ccccc1) 508 nm; (in ClCCl) 507 nm.
On to `COc1ccc(/C=C/c2ccccc2)cc1OC`, for which the emission maximum was 372 nm (in C1CCCCC1); 385 nm (in CC#N); 374 nm (in CC(C)O); 375 nm (in CCCCOCCCC); 382 nm (in CCOC(C)=O); 373 nm (in CCOCC).
`CC1=C2C=CC=[N+]2[B-](F)(F)n2cccc21`: the emission maximum by setting is: (in CCCCCC) 506 nm; (in CO) 503 nm; (in ClCCl) 507 nm.
For `CC(C)(C)c1ccc(C2=c3c(c4ccc(C(C)(C)C)cc4c4cc(C(C)(C)C)ccc34)=[N+]3C2=C(c2ccccc2)c2c(-c4ccc(C(C)(C)C)cc4)c4c5ccc(C(C)(C)C)cc5c5cc(C(C)(C)C)ccc5c4n2[B-]3(F)F)cc1`, the emission maximum amounted to 711 nm (in C1CCCCC1); 712 nm (in C1CCOC1); 706 nm (in CC#N); 714 nm (in Cc1ccccc1); 712 nm (in ClCCl).
With `c1cc2ccc3[s+]c4ccc5cccc6c7cccc8c(c1)c2c3c(c87)c4c56`, the emission maximum (in ClCCl) is given as 643 nm.
With `CCC1(CC)c2ccccc2-c2ccc(C#Cc3cc(C#Cc4ccc5c(c4)C(CC)(CC)c4ccccc4-5)c4ccc5c(C#Cc6ccc7c(c6)C(CC)(CC)c6ccccc6-7)cc(C#Cc6ccc7c(c6)C(CC)(CC)c6ccccc6-7)c6ccc3c4c65)cc21`, the emission maximum (in Cc1ccccc1) worked out at 549 nm.
Regarding `Oc1ccccc1-c1nc2ccccc2s1`, the emission maximum runs as follows: (in CCO) 373 nm; (in ClCCl) 396 nm; (in O) 463 nm.
`C[Si](C)(C)C#CC(C#C[Si](C)(C)C)=Cc1ccc(C=C(C#C[Si](C)(C)C)C#C[Si](C)(C)C)s1` showed an emission maximum (in ClC(Cl)Cl) of 475 nm.
`CN(C)CCCN1c2ccccc2CCc2ccccc21`: the emission maximum reads like this: (in CC#N) 348 nm; (in CO) 353 nm; (in O) 400 nm.
Regarding `Cc1cccc(C)c1Nc1ccc(/C=C/c2cccnc2)cc1`, the emission maximum is given as 450 nm (in CC#N) and 383 nm (in CCCCCC).
On to `O=S(=O)([O-])c1ccc2c([O-])cc(S(=O)(=O)[O-])cc2c1`, for which the emission maximum (in O) came to 485 nm.
For the molecule `Cc1cc(-c2nc(-c3ccccc3)nc(-c3ccccc3)n2)ccc1-n1c2ccccc2c2cc3c(cc21)C1c2ccccc2C3c2ccccc21`, the emission maximum is 431 nm (in Cc1ccccc1) and 451 nm (in O=P(c1ccccc1)(c1ccccc1)c1ccccc1Oc1ccccc1P(=O)(c1ccccc1)c1ccccc1).
Turning to `COc1ccc(-c2csc(/C(C#N)=C/c3ccc(Cl)cc3)n2)cc1`, the emission maximum (in CC#N) was found to be 543 nm.
With `CCC1=C(C)C2=Cc3cccn3[B-](F)(F)[N+]2=C1C`, the emission maximum runs as follows: (in C1CCCCC1) 517.5 nm; (in CC(C)=O) 516 nm; (in CCO) 517 nm; (in CCOC(C)=O) 516.5 nm; (in CO) 516.5 nm; (in OCC(F)(F)F) 515.5 nm.
The molecule `Nc1cccc2cc3ccccc3cc12` had an emission maximum (in C1CCCCC1) of 487.09 nm.
`CCc1ccc(/C=N/c2cc(C(C)C)c(O)cc2C)cc1`: the emission maximum reads like this: (in C1CCCCC1) 406 nm; (in C1CCOC1) 412 nm; (in C1COCCO1) 410 nm; (in CC#N) 421 nm; (in CC(C)(C)O) 414 nm; (in CC(C)O) 418 nm. In addition, the emission maximum was 402 nm (in CCCCCC); 420 nm (in CCCCO); 422 nm (in CCO); 412 nm (in CCOC(C)=O); 423 nm (in CN(C)C=O); 428 nm (in CO). For the same molecule, the emission maximum is 431 nm (in CS(C)=O); 415 nm (in ClC(Cl)Cl); 420 nm (in ClCCl); 444 nm (in O); 429 nm (in OCCO).
As for `C(=C\c1cc[n+](Cc2ccccc2)cc1)/c1cc[n+](Cc2ccccc2)cc1`, where the note is “in CC#N”, the emission maximum was found to be 426 nm.
Consider `Cn1c(=O)c(/N=N/c2cc(S(=O)(=O)O)ccc2C(=O)O)c(O)c2ccccc21`, for which the emission maximum by setting is: (in C1CCOC1) 523 nm; (in CC(C)=O) 538 nm; (in CCOC(C)=O) 528 nm; (in CO) 532 nm; (in CS(C)=O) 486 nm; (in Cc1ccccc1) 509 nm. Further, the emission maximum runs as follows: (in ClCCl) 516 nm; (in O) 553 nm.
As to `O=c1oc2ccccc2cc1-c1cn2ccccc2n1`, the emission maximum (in ClC(Cl)Cl) is listed as 456 nm.
